Assay [1] has as its target T1, PD-L1 (Homo sapiens (Human), UniProt Q9NZQ7). The experiment in a line: NMR binding assay (macromolecule-based 1D 1H NMR). The settings on record: PD-L1 10 μM, protein:ligand 1:1 and 1:10.
Target sequence in this assay (Q9NZQ7 18-134): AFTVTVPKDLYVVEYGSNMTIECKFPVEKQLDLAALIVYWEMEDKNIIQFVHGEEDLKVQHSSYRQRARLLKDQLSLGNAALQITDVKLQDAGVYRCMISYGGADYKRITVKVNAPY
Assay [2] concerns the target T1, PD-L1. The experiment in a line: Differential scanning calorimetry (DSC) of PD-L1. Type of assay: binding. The settings on record: PD-L1 32 μM, ligand 32 μM.
Target sequence in this assay (Q9NZQ7 18-134): as above
Assay [3] concerns the target T1, PD-L1. To be noted: PD-L1 versus PD-1.
Target sequence in this assay (Q9NZQ7 19-290): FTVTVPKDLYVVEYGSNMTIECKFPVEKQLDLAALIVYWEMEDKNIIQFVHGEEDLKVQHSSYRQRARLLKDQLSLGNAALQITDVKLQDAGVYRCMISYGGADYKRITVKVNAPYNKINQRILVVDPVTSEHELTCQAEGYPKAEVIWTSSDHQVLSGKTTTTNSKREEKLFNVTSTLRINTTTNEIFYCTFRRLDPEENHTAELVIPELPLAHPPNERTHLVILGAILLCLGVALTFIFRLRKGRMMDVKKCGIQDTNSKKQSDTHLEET
The target in another assay is hPD1/hPD-L1 interaction (Homo sapiens (Human), UniProt Q9NZQ7). Kind of assay: HTRF assay of PD-1/PD-L1 interaction. Type of assay: binding.
Chain of hPD1/hPD-L1 interaction (Q9NZQ7 19-238): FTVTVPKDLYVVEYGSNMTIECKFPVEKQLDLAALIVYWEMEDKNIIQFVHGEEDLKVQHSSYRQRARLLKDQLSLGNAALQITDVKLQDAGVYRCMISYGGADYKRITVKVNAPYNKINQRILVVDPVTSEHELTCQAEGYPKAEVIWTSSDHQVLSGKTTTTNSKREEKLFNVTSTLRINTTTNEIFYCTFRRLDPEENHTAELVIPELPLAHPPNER

Each structure is given as a SMILES string. Where only a bound is given, the exact number is not on record here.

Regarding `COc1nc(OCc2cccc(-c3ccccc3)c2C)ccc1CNCCNC(C)=O` [BMS202], the “formation of the ligand-PD-L1 complex (1D 1H NMR signal changes)” value on PD-L1 [1] is listed as “decrease in the intensity of the free protein signals”. Besides, the “change in the Tm of the protein (ΔTm)” value at PD-L1 [2] turned out to be 6.5 °C. Besides, the “Tm of PD-L1 in the presence of ligand” value at PD-L1 [2] (no ligand Tm 46.5 (±0.5)) is 53.0 (±0.5) ° C. As for `CC(=O)NCCNc1ncnc(OCc2cccc(-c3ccccc3)c2C)n1` [Compound 4], on PD-L1 [1], the “formation of the ligand-PD-L1 complex (1D 1H NMR signal changes)” value is given as “formation of the compound 4-PD-L1 complex”. The specific binding result on PD-L1 [3] was “capable of specifically binding PD-L1 and not PD-1”. Also, the IC50 against hPD1/hPD-L1 interaction (HTRF) is 0.115 µM; at hPD1/hPD-L1 interaction (HTRF, Table 1), 0.115 ± 0.024 µM. `COC(=O)[C@H](CO)Nc1ncnc(OCc2cccc(-c3ccccc3)c2C)n1` [Compound 76]: the IC50 at hPD1/hPD-L1 interaction (Table 2) came out at 0.692 µM. Take `Cc1c(COc2ncnc(N[C@@H](CO)C(=O)O)n2)cccc1-c1ccccc1` [Compound 77]: the IC50 against hPD1/hPD-L1 interaction (Table 2) was > 10 µM.

On to `CC(=O)NCCNc1ncnc(NCc2cccc(-c3ccccc3)c2C)n1` [Compound 80], for which, at hPD1/hPD-L1 interaction (Table 2), the IC50 is > 10 µM.

Regarding `Cc1c(CNc2ncnc(NCCNS(C)(=O)=O)n2)cccc1-c1ccccc1` [Compound 81], on hPD1/hPD-L1 interaction (Table 2), the IC50 is > 10 µM.

For `COC(=O)[C@H](CO)Nc1ncnc(NCc2cccc(-c3ccccc3)c2C)n1` [Compound 82], at hPD1/hPD-L1 interaction (Table 2), the IC50 was > 10 µM. In the case of `Cc1c(CNc2ncnc(N[C@@H](CO)C(=O)O)n2)cccc1-c1ccccc1` [Compound 83], the IC50 against hPD1/hPD-L1 interaction (Table 2) was > 10 µM. In the case of `CC(=O)NCCNc1ncnc(NCc2cccc(-c3ccc4c(c3)OCCO4)c2C)n1` [Compound 84], at hPD1/hPD-L1 interaction (Table 2), the IC50 was > 10 µM. Still for that read-out and setting: the figure for `Cc1c(CNc2ncnc(NCCNS(C)(=O)=O)n2)cccc1-c1ccc2c(c1)OCCO2` [Compound 85] is > 10 µM.

(Values after patent publication US20240327387A1, “TRIAZINE DERIVATIVES FOR THE TREATMENT OF TUMOURS AND NEURODEGENERATIVE DISORDERS” (UNIVERSITA' DEGLI STUDI DI MILANO, priority 2021, published 2024).)
